The numbers were not newly measured in US6458821B1, “N-substituted azabicycloheptane derivatives, production and use thereof” (Abbott Laboratories, priority 1998, dated 2002), which cites them from elsewhere.

Structures are written as SMILES.

One data set has as its target T1, dopamine D4 receptor (Homo sapiens, UniProt P21917).
T1 sequence (P21917 1-419): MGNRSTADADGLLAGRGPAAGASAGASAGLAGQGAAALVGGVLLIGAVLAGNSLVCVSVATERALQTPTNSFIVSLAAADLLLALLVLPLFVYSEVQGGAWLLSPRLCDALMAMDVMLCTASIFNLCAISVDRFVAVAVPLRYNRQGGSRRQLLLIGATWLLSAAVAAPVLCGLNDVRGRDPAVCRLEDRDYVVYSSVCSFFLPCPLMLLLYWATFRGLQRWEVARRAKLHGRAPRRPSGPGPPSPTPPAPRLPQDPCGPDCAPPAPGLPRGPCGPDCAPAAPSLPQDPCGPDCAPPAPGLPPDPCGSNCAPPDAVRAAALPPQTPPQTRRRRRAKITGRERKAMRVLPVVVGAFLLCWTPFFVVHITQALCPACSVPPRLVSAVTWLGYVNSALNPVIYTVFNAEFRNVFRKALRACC
Conditions: background statement on substance A.

The next data set concerns the target serotonin 2A receptor (Homo sapiens, UniProt P28223). Conditions: background statement on substance A.
The target in another data set is D2 (Homo sapiens, UniProt P14416). The settings on record: D4/5-HT2A versus D2; background statement.
The conditions of data set [1]: limits the dosage of substance A.

Chain of serotonin 2A receptor (P28223 whole entry): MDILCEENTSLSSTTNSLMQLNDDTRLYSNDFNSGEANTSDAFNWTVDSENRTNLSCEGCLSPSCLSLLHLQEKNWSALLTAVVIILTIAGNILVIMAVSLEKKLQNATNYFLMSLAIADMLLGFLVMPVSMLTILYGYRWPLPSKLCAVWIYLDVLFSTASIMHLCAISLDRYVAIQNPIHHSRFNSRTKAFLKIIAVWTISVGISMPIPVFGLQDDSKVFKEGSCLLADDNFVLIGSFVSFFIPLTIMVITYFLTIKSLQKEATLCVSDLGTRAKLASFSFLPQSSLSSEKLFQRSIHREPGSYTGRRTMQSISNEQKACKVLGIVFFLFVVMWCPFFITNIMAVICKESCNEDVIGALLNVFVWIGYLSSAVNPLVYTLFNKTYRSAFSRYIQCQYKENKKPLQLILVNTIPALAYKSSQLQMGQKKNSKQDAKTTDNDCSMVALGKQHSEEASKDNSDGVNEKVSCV
Chain of D2 (P14416 whole entry): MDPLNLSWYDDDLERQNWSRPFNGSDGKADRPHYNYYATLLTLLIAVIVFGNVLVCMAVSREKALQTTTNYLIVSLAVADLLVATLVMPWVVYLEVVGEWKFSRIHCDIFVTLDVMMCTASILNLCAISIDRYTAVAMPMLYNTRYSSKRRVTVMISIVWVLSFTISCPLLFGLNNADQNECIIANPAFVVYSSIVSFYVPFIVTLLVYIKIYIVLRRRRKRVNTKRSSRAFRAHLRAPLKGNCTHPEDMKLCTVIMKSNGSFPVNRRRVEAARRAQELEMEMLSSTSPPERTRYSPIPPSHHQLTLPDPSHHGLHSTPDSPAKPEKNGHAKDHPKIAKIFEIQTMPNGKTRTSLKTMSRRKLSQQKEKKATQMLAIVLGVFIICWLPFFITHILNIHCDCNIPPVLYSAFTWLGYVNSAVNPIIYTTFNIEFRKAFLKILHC

As for `O=c1[nH]c2ccccc2c(=O)n1CCN1C[C@H]2C[C@H](c3ccc(F)cc3)[C@H]2C1` [substance A, (+)-(1S,5R,6S)-exo-3-[2-[6-(4-fluorophenyl)-3-azabicyclo[3.2.0]-heptan-3-yl]ethyl]-1H,3H-quinazoline-2,4-dione], the D4 affinity entry on dopamine D4 receptor was “high”. Moreover, on serotonin 2A receptor, the 5-HT2A affinity entry is “high”. The “selectivity versus D2” value on D2 was “good selectivity”. The “prolongations in the QT interval in the ECG” value in data set [1] is listed as “prolongations which occur in the QT interval”.
